Reference: patent publication US4337248A, “Paromomycin containing compounds and method of use” (Farmitalia Carlo Erba S.p.A., priority 1979, dated 1982)
Values after ≈ are worked out from the molar mass of the structure shown. Where two headings read alike, the source gives them in different places.

What was measured:
Assay type in all cases: cell-based
[1] = system: Staphylococcus aureus 209P; experiment: In vitro MIC by serial dilution in liquid medium, Staphylococcus aureus 209P; details: read-out: minimum inhibitory concentration (MIC)
Experimental: (§1) The "in vitro" tests are carried out with the method of serial dilutions in liquid medium (Nutrient Broth Difco) and the minimal inhibition concentration (MIC) is determined after 24 hours incubation at 37° C.

Escherichia coli K 12 = experiment: In vitro MIC by serial dilution in liquid medium, Escherichia coli K 12; details: K12, Nutrient Broth Difco, 24 hours, 37° C, read-out: minimum inhibitory concentration (MIC)
Experimental: as §1

[2] = system: Escherichia coli K 12-R 112; experiment: In vitro MIC by serial dilution in liquid medium, Escherichia coli K 12-R 112; details: K12R112, 24 h, read-out: minimum inhibitory concentration (MIC)
Experimental: as §1

[3] = system: Escherichia coli K 12-R 148; experiment: In vitro MIC by serial dilution in liquid medium, Escherichia coli K 12-R 148; details: K12R148; Escherichia coli K 12-R 148, inactivating enzyme APH (3') II; Nutrient Broth Difco, 24 hours, 37° C; read-out: minimum inhibitory concentration (MIC)
Experimental: as §1

[4] = system: Escherichia coli K 12-R 55; experiment: In vitro MIC by serial dilution in liquid medium, Escherichia coli K 12-R 55; details: K12R55; Escherichia coli K 12-R 55, inactivating enzyme AAC (3) I; Nutrient Broth Difco, 24 hours, 37° C; read-out: minimum inhibitory concentration (MIC)
Experimental: as §1

bacteria = experiment: In vitro antibacterial activity (general statement)
Experimental: as §1

[5] = system: resistant strains of gram-negative bacteria; experiment: In vitro antibacterial activity, resistant strains of gram-negative bacteria (summary in words); details: against some resistant strains of gram-negative bacteria
Experimental: as §1

[6] = Staphylococcus aureus 209P, Nutrient Broth Difco, 24 hours, 37° C

Structure (SMILES)	MIC [1, 6] [µg/mL]	MIC (Escherichia coli K 12) [µg/mL]	MIC [2] [µg/mL]	MIC [3] [µg/mL]	MIC [4] [µg/mL]	antibacterial activity "in vitro" (bacteria)	activity compared with paromomycin [5]	MIC ([1]; Staphylococcus aureus, 209P, 24 h) [µg/mL]
NC[C@@H]1O[C@H](O[C@H]2[C@@H](O)[C@H](O[C@@H]3[C@@H](O)[C@H](N)C[C@H](N)[C@H]3O[C@H]3O[C@H](CO)[C@H](Cl)[C@H](O)[C@H]3N)O[C@@H]2CO)[C@H](N)[C@@H](O)[C@@H]1O [(12), 4'-Deoxy-4'-epi-chloro-paromomycin]	6.25 (≈ 9.86 µM)	50 (≈ 78.9 µM)	> 200	200 (≈ 315 µM)	50 (≈ 78.9 µM)	display antibacterial activity		
NC[C@@H]1O[C@H](O[C@H]2[C@@H](O)[C@H](O[C@@H]3[C@@H](O)[C@H](N)C[C@H](N)[C@H]3O[C@H]3O[C@H](CO)C[C@H](O)[C@H]3N)O[C@@H]2CO)[C@H](N)[C@@H](O)[C@@H]1O [(8), 4'-Deoxy paromomycin]	1.55 (≈ 2.58 µM)	12.5 (≈ 20.8 µM)	> 200	50 (≈ 83.4 µM)	6.25 (≈ 10.4 µM)	display antibacterial activity	increased activity against some resistant strains of gram-negative bacteria	
NC[C@@H]1O[C@H](O[C@H]2[C@@H](O)[C@H](O[C@@H]3[C@@H](O)[C@H](N)C[C@H](N)[C@H]3O[C@H]3O[C@H](CO)[C@@H](O)[C@H](O)[C@H]3N)O[C@@H]2CO)[C@H](N)[C@@H](O)[C@@H]1O [paromomycin]		12.5 (≈ 20.3 µM)	> 200	> 200	6.25 (≈ 10.2 µM)			1.55 (≈ 2.52 µM)
